Measurements reported in article PMC6784148 (Toxins, 2019).
Where two headings read alike, the source gives them in different places.

How the values were obtained:
[1] = test system: intestinal porcine epithelial cell line (IPEC-J2)
[2] = test system: intestinal porcine epithelial cell line (IPEC-J2); assay: cells; conditions: Sus scrofa, IPEC-J2, 48 h
[3] = test system: HepG2 cells; conditions: up until a concentration of 100 µM; cited from earlier work
[4] = in vitro; conditions: pig
[5] = test system: rats; parameters: method as in PMID 9872769; conditions: at levels of 0.05 and 0.1%; cited from earlier work
[6] = test system: HT29 cells; parameters: method as in PMID 29248571; conditions: after 48 h; cited from earlier work
[7] = test system: HCEC-1CT cells; parameters: method as in PMID 29248571; conditions: after 48 h; cited from earlier work
[8] = test system: three different cancer cell lines; parameters: method as in PMID 1172201; conditions: cited from earlier work
[9] = pigs; cited from earlier work
[10] = parameters: method as in PMID 24239892, PMID 22008903; conditions: cited from earlier work
[11] = test system: Caco-2 cells; parameters: method as in doi:10.3920/WMJ2014.1861; conditions: 780 µM, 48 h of incubation; cited from earlier work
[12] = test system: THP-1 monocytes; parameters: method as in doi:10.3920/WMJ2014.1861; conditions: cited from earlier work
[13] = test system: glucuronidation of DON in human liver microsomes; parameters: method as in PMID 31049613, PMID 29465119; conditions: cited from earlier work

Row | Compound | Negative effects on IPEC-J2 in the tested concentration range [1] | Relative IC50 value [1] [µg/kg] | IC50 ([2]; read-out: Relative IC50 value) [µM] | Absolute IC50 value [1] [µg/kg] | also measured
1 | O=C(O)CC[N+](=O)[O-] [3-nitropropionic acid] | None |  |  |  | 
2 | Cc1cc(O)cc2oc(=O)c3c(O)cc(O)cc3c12 [Alternariol] |  | 5232 | 20.3 |  | Cytotoxic effect on IPEC-J2 (in words) [1]: slight decrease in viability; Cell viability of HepG2 cells [3]: did not decrease in a concentration-dependent manner; viability [4]: ~50%; viability at 20 µM [4]: 76.3%
3 | CCC(=O)CCCCC[C@@H]1NC(=O)[C@H]2CCCCN2C(=O)[C@H]([C@@H](C)CC)NC(=O)[C@H](Cc2cn(OC)c3ccccc23)NC1=O [Apicidin] |  | 306 | 0.49 | 324 | IC50 ([2]; read-out: Absolute IC50 value): 0.52 µM; Toxic effects in rats [5]: leading to death
4 | COC1=C(C2=C(OC)C(=O)c3cc4oc(C)cc(=O)c4c(O)c3C2=O)C(=O)c2c(cc3oc(C)cc(=O)c3c2O)C1=O [Aurofusarin] |  | 5329 |  | 6766 | IC50 ([1]; read-out: Absolute IC50 value): 11.9 µM; IC50 ([1]; read-out: Relative IC50 value): 9.34 µM; Concentration at which a significant decrease in viability starts [6]: 5 µM; Concentration at which a significant decrease in viability starts [7]: 5 µM
5 | COC1=CC(=O)c2c(c(O)c3oc4cc(OC)cc(C)c4c(=O)c3c2O)C1=O [Bikaverin] |  | 287 | 0.75 | 711 | Viability after applying higher concentrations [1]: did not further decrease below 50%; IC50 ([2]; read-out: Absolute IC50 value): 1.86 µM; ED50 (cytotoxicity) [8]: 0.5 to 4.2 µg/mL; ED50 (cytotoxicity) ([8]; µg/mL values expressed in µM): 1.31 to 10.99 µM
6 | CC1=C[C@H]2O[C@@H]3[C@H](O)C[C@](C)([C@@]2(CO)[C@H](O)C1=O)[C@]31CO1 [Deoxynivalenol, reference compound] |  | 557 |  | 756 | IC50 ([1]; read-out: Absolute IC50 value): 2.55 µM; IC50 ([1]; read-out: Relative IC50 value): 1.88 µM; Bioavailability after oral administration [9]: 98.6% ± 23.6%
7 | Cc1cc(O)c2c(c1)C(=O)c1cc(O)cc(O)c1C2=O [Emodin] |  | 3537 | 13.1 | 5056 | Viability after applying higher concentrations [1]: did not further decrease below 50%; Viability at concentrations >50 µM [1]: did not further decrease; IC50 ([2]; read-out: Absolute IC50 value): 18.7 µM
8 | CC[C@H](C)[C@H]1C(=O)O[C@H](C(C)C)C(=O)N(C)[C@@H](C(C)C)C(=O)O[C@H](C(C)C)C(=O)N(C)[C@@H](C(C)C)C(=O)O[C@H](C(C)C)C(=O)N1C [Enniatin B1] |  | 1759 | 2.69 | 2400 | IC50 ([2]; read-out: Absolute IC50 value): 3.67 µM; Oral bioavailability [10]: high oral bioavailability
9 | CC(C)[C@H]1C(=O)O[C@H](C(C)C)C(=O)N(C)[C@@H](C(C)C)C(=O)O[C@H](C(C)C)C(=O)N(C)[C@@H](C(C)C)C(=O)O[C@H](C(C)C)C(=O)N1C [Enniatin B] |  | 2233 | 3.49 | 2079 | Viability after applying higher concentrations [1]: did not further decrease below 50%; IC50 ([2]; read-out: Absolute IC50 value): 3.25 µM
10 | C/C=C/[C@@H]1C=C[C@@H]2C[C@H](C)CC[C@H]2[C@]1(C)/C(O)=C1/C(=O)[C@H](CO)N(C)C1=O [Equisetin] |  | 4120 |  |  | Cytotoxic effect on IPEC-J2 (in words) [1]: slight decrease in viability; Cell viability ([1]; 20 µM): 64.0% (±7.6%); IC50 ([1]; read-out: Relative IC50 value): 11 µM
11 | CN1C(=O)[C@]23CC4=CC=C[C@H](O)[C@H]4N2C(=O)[C@@]1(CO)SS3 [Gliotoxin] |  | 206 | 0.63 | 209 | IC50 ([2]; read-out: Absolute IC50 value): 0.64 µM
12 | COc1c(C)c2c(c(O)c1C/C=C(\C)CCC(=O)O)C(=O)OC2 [Mycophenolic Acid, Mycophenolic acid] |  | 170 | 0.543 |  | Abrupt decreased viability [1]: 26.1% ± 12.1%; Cytotoxic effect on IPEC-J2 (in words) [1]: slight decrease in viability; Viability at concentrations from 2.5 to 150 µM [1]: no further loss in viability; IC50 ([1]; read-out: Relative IC50 value): 0.53 µM; Decrease of mitochondrial activity [11]: 45%; Effect in THP-1 monocytes [12]: no effect; viability [4]: ≥ 66%
13 | O=C1C=C2C(=CCOC2O)O1 (stereo not shown) [Patulin] |  | 490 | 3.18 | 495 | IC50 ([2]; read-out: Absolute IC50 value): 3.21 µM
14 | COc1cc(O)c2c(O)c3c(=O)cc(C)oc3cc2c1 [Rubrofusarin] |  | 5865 | 21.5 |  | Cytotoxic effect on IPEC-J2 (in words) [1]: slight decrease in viability; viability at 50 µM [4]: 64 ± 8.7%
15 | COc1cc(O)c2c(=O)oc3cc(O)cc(C)c3c2c1 [alternariol monomethyl ether] | None |  |  |  | 
16 | O=C1N[C@@H](Cc2c[nH]c3ccccc23)C(=O)N2CCC[C@@H]12 [brevianamid F] | None |  |  |  | 
17 | CC1(C)CCC[C@]2(C)[C@@H]3[C@H]1[C@@H](O)[C@@]2(C)C[C@H]3O [culmorin] | None |  |  |  | Cytotoxic effect on IPEC-J2 (in words) [1]: no cytotoxic effect; Effect on glucuronidation of DON [13]: able to inhibit the glucuronidation of DON
18 | O=C1N[C@@H](Cc2ccc(O)cc2)C(=O)N2CCC[C@@H]12 [cyclo-(L-Pro-L-Tyr)] | None |  |  |  | Cytotoxic effect on IPEC-J2 (in words) [1]: non-cytotoxic
19 | CC(C)[C@@H]1NC(=O)[C@@H]2CCCN2C1=O [cyclo-(L-Pro-L-Val)] | None |  |  |  | 
20 | CCCCc1ccc(C(=O)O)nc1 [fusaric acid] | None |  |  |  | 
21 | O=c1cc(CO)occ1O [kojic acid] | None |  |  |  | 
22 | O=c1cc(O)c1=O [moniliformin] | None |  |  |  | 
23 | C=CC(C)(C)[C@@]12C[C@H]3C(=O)N/C(=C/c4c[nH]cn4)C(=O)N3[C@@H]1Nc1ccccc12 [roquefortine C] | None |  |  |  | 
24 | CC(C)C[C@@H]1NC(=O)[C@H](C)N(C)C(=O)CNC(=O)/C(=C/c2ccccc2)N(C)C1=O [tentoxin] | None |  |  |  | 
25 | OCCc1c[nH]c2ccccc12 [tryptophol] | None |  |  |  | 
26 | Beauvericin |  | 1756 |  | 1905 | IC50 ([1]; read-out: Absolute IC50 value): 2.43 µM; IC50 ([1]; read-out: Relative IC50 value): 2.24 µM
27 | Enniatin A |  | 1964 |  | 2319 | IC50 ([1]; read-out: Absolute IC50 value): 3.4 µM; IC50 ([1]; read-out: Relative IC50 value): 2.88 µM
28 | Enniatin A1 |  | 2151 |  | 2772 | IC50 ([1]; read-out: Absolute IC50 value): 4.15 µM; IC50 ([1]; read-out: Relative IC50 value): 3.22 µM
